Assay results as given in patent US6436962B1, “Arylhydantoin derivatives and uses thereof” (Merck & Co., Inc., priority 1999, dated 2002).

Assays:
[1] = molecular target: T1, human alpha 1a adrenergic receptor (Homo sapiens, UniProt P35348); test: Screening assay: alpha 1a adrenergic receptor binding ([125I]-HEAT competition); details: membranes from stably transfected human alpha 1a cell line (ATCC CRL 11140), 100 pM [125I]-HEAT
T1 sequence (P35348 1-466): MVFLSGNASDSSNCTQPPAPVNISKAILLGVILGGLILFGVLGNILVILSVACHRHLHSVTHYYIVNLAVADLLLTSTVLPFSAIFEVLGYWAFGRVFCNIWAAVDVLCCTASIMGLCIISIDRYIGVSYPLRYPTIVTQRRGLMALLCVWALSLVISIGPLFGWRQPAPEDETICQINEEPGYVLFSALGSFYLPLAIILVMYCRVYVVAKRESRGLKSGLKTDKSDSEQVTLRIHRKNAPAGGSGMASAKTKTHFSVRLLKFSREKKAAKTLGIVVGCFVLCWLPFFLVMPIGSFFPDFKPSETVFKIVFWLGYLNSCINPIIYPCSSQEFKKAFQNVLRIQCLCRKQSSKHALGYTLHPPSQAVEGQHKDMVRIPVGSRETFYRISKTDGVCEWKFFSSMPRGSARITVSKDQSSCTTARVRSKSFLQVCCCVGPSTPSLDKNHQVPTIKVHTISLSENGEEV
Experimental: Screening Assay: Alpha 1a Adrenergic Receptor Binding
These competition binding reactions (total volume=200 μl) contained 50 mM Tris-HCl pH. […] Reactions were incubated at room temperature for one hour with shaking. Reactions were filtered onto Whatman GF/C glass fiber filters with a Inotec 96 well cell harvester. Filters were washed three times with ice cold buffer and bound radioactivity was determined (Ki).

| Structure (SMILES) | melting point | Ki [1] |
| --- | --- | --- |
| Cc1ccc(C2(c3ccc(C)cc3)NC(=O)N(CCCN3CCC(C#N)(c4ccccc4C)CC3)C2=O)cc1 [Compound 2, 3-{3-[4-(2-Methylphenyl)-4-cyanopiperidin-1-yl]propyl}-5,5-bis(4-methylphenyl)-imidazolin-2,4-dione] | 164 to 165 °C | < 20 nM |
| N#CC1(c2ccccc2)CCN(CCCN2C(=O)NC(c3ccccc3)(c3ccccc3)C2=O)CC1 [Compound 15, 3-[3-(4-phenyl-4-cyanopiperidin-1-yl)propyl]-5,5-bis(phenyl)-imidazolin-2,4-dione] | 161 to 163 °C | < 20 nM |
| Cc1ccc(C2(c3ccc(C)cc3)NC(=O)N(CCCCN3CCC4(CC3)C(=O)Cc3ccccc34)C2=O)cc1 [Compound 19, 3-{4-(2,3-dihydro-spiro[indeno-1,4′-piperidin]-2(3H)-on-1′-yl)butyl}-5,5-bis(4-methylphenyl)-imidazolin-2,4-dione] | 76 to 88 °C | < 20 nM |
| Cc1ccc(C2(c3ccc(C)cc3)NC(=O)N(CCCN3CCC4(CC3)C(=O)N(C)c3ccccc34)C2=O)cc1 [Compound 22, 3-{3-(1-methyl-spiro[3H-indole-3,4′piperidin]-2(1H)-on-1′-yl)propyl}-5,5-bis(4-methylphenyl)-imidazolin-2,4-dione] | 127 to 135 °C | < 20 nM |

Now from value to compound, other results behind:

| melting point | Structure (SMILES) | Ki [1] |
| --- | --- | --- |
| 170 to 172 °C | Cc1ccc(C2(c3ccc(C)cc3)NC(=O)N(CCCN3CCC4(CCc5ccccc54)CC3)C2=O)cc1 [Compound 18, 3-{3-(2,3-dihydro-spiro[indeno-1,4′-piperidin]-1′yl)propyl}-5,5-bis(4-methylphenyl)-imidazolin-2,4-dione] | < 20 nM |
| 201 to 205 °C | Cc1ccc(C2(c3ccc(C)cc3)NC(=O)N(CCCN3CCC4(CC3)Cc3ccccc3C4=O)C2=O)cc1 [Compound 20, 3-{3-(2,3-dihydro-spiro[indeno-2,4′-piperidin]-1(2H)-on-1-yl)propyl}-5,5-bis(4-methylphenyl)-imidazolin-2,4-dione] | < 20 nM |
| 63 to 65 °C | CCOC(=O)CN1C(=O)N(CCCN2CCC(C#N)(c3ccccc3C)CC2)C(=O)C1(c1ccc(C)cc1)c1ccc(C)cc1 [Compound 35, 1 -Ethoxycarbonylmethyl-3-{3-[4-(2-methylphenyl)-4-cyanopiperidin-1-yl]propyl}bis-5,5-(4-methylphenyl)-imidazolin-2,4-dione] |  |
